As usually defined, the IC50 is the point on the concentration scale where inhibition reaches its midpoint.

IDO, sequence (P14902 whole entry): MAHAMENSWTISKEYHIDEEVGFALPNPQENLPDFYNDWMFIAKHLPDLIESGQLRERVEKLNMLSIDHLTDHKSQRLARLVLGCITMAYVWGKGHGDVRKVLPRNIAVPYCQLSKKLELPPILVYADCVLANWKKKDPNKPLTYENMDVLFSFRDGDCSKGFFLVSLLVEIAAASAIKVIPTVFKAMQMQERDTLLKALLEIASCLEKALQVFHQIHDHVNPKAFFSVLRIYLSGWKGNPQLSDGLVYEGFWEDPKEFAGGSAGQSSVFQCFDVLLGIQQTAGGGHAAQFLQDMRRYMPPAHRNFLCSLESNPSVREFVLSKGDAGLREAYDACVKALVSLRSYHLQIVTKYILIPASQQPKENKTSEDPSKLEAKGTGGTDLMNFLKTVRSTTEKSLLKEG

The target of the assay is IDO (Homo sapiens, UniProt P14902). Put plainly: IDO enzyme activity assay. Type of assay: biochemical. As to conditions: read-out: Potency: IDO IC50. The procedure:
An IDO enzyme assay and cellular production of kynurenine (KYN) is described in Sarkar, S. A. et al., Diabetes 56:72-79 (2007). Briefly, all chemicals can be purchased from Sigma-Aldrich (St. Louis, Mo.) unless specified otherwise. Groups of 1,000 human islets can be cultured for 24 h in 1 mL medium with cytokines, recovered by centrifugation for 5 min at 800×g and sonicated in 150 μL PBS containing a protease inhibitor cocktail (Set 2; Calbiochem, EMD Biosciences, San Diego, Calif.). The sonicate can be centrifuged for 10 min at 10,000×g, and the supernatant can be assayed in triplicate by incubating a 40 μl sample with an equal volume of 100 mmol/L potassium phosphate buffer, pH 6.5, containing 40 mmol/L ascorbic acid (neutralized to pH 7.0), 100 μmol/L methylene blue, 200 μg/mL catalase, and 400 μmol/l L-Trp for 30 min at 37° C. The assay can be terminated by the addition of 16 μL 30% (w/v) trichloroacetic acid (TCA) and further incubated at 60° C. for 15 min to hydrolyze N-formylkynurenine to KYN. The mixture can then be centrifuged at 12,000 rpm for 15 min, and KYN can be quantified by mixing equal volume of supernatant with 2% (w/v) Ehrlich's reagent in glacial acetic acid in 96-well microtiter plate and reading the absorbance at 480 nm using L-KYN as standard. Protein in the islet samples can be quantified by Bio-Rad Protein assay at 595 nm. For the detection of L-KYN in the islet culture supernatants, proteins can be precipitated with 5% (w/v) TCA and centrifuged at 12,000 rpm for 15 min, and determination of KYN in the supernatant with Ehrlich's reagent can be determined as described above. IL-4 ([…]; 500-2,000 units/mL) and 1-α-methyl Trp (1-MT; 40 μmol/L) can be added to the incubation media as indicated. This assay can also form the basis of a cell-based assay, and may be quantified via LCMS/MS as an alternative to UV/Vis detection.
cDNA clones for both human and mouse IDO have been isolated and verified by sequencing and are commercially available. In order to prepare IDO for biochemical studies, C-terminal His-tagged IDO protein can be produced in E. coli using the IPTG-inducible pET5a vector system and isolated over a nickel column. The yield of the partially purified protein can be verified by gel electrophoresis and the concentration estimated by comparison to protein standards. To assay IDO enzymatic activity, a 96-well plate spectraphotometric assay for kynurenine production can be run following published procedures (see, e.g., Littlejohn, T. K., et al. (2000) Prot. Exp. Purif. 19:22-29). To screen for IDO inhibitory activity, compounds can be evaluated at a single concentration of, for example, 200 μM against 50 ng of IDO enzyme in 100 μL reaction volumes with tryptophan added at increasing concentrations at, for example, 0, 2, 20, and 200 μM. Kynurenine production can be measured at 1 hour.
As for `O/N=C(/CC(O)C1CCCCC1)Nc1cccc(Cl)c1` (stereo not drawn), the IC50 is under 10 µM.
Then `O/N=C(/CC(O)C1CCCCC1)Nc1ccc(F)c(F)c1` (stereo not drawn), with under 100 µM; and `O/N=C(/CC(O)C1CCCCC1)Nc1ccc(Cl)c(F)c1` (stereo not drawn), with under 100 µM.
Then `O/N=C(/CC(O)C1CCCCC1)Nc1cccc(F)c1` (stereo not drawn), with under 100 µM.
As to `O/N=C(/CC(O)C1CCCCC1)Nc1cc(Cl)cc(Cl)c1` (stereo not drawn), the IC50 was under 10 µM.
In the case of `CC/C(=N/O)Nc1cccc(Cl)c1`, the IC50 is under 10 µM.
For `O/N=C(/CCC1CCCCC1)Nc1cccc(Cl)c1`, the IC50 is under 1 µM.
Then `O/N=C(/CC(O)C1CCCCC1)Nc1cccc(C(F)(F)F)c1` (stereo not drawn), with under 100 µM.
Then `O/N=C(/CC(O)C1CCCCC1)Nc1cc(F)cc(Cl)c1` (stereo not drawn), with under 100 µM; and `O/N=C(\Nc1cccc(Cl)c1)C1CCCC1`, with under 10 µM; and `O/N=C(/CC1CCCCC1)Nc1cccc(Cl)c1`, with under 1 µM.
Regarding `O/N=C(/CC1CCCC1)Nc1cccc(Cl)c1`, the IC50 was under 1 µM.
In the case of `O/N=C(/CCC1CCCC1)Nc1cccc(Cl)c1`, the IC50 was under 1 µM.
Take `CCC/C(=N/O)Nc1cccc(Cl)c1`: the IC50 was under 1 µM.
Consider `CCCC/C(=N/O)Nc1cccc(Cl)c1`, for which the IC50 was under 1 µM.
Then `CC(C)C/C(=N/O)Nc1cccc(Cl)c1`, with under 1 µM; and `CCCCC/C(=N/O)Nc1cccc(Cl)c1`, with under 1 µM; and `O/N=C(/CC1CCCO1)Nc1cccc(Cl)c1` (stereo not drawn), with under 10 µM.
Then `CC(C)CC/C(=N/O)Nc1cccc(Cl)c1`, with under 1 µM; and `OCCCC/C(=N/O)Nc1cccc(Cl)c1`, with under 10 µM.
Consider `O/N=C(/CC1CCCC1O)Nc1cccc(Cl)c1` (stereo not drawn), for which the IC50 is under 10 µM.
For `CC(C)(C)C/C(=N/O)Nc1cccc(Cl)c1`, the IC50 was under 100 µM.
With `CCCCCC/C(=N/O)Nc1cccc(Cl)c1`, the half-maximal inhibitory concentration (IC50) is under 1 µM.
Then `O/N=C(/CC1CC1)Nc1cccc(Cl)c1`, with under 1 µM.

The values are drawn from patent US10987322B2, “Immunoregulatory agents” (FLEXUS BIOSCIENCES, INC., priority 2014, dated 2021).
